Results published in ChEMBL document CHEMBL3580659, “One-pot multicomponent synthesis of indole incorporated thiazolylcoumarins and their antibacterial, anticancer and DNA cleavage studies” (2015).

Tests used:
Assay type in all cases: functional
SK-OV-3 = assay: Cytotoxicity against human SKOV3 cells assessed as cell growth level at 100 nM after 48 hrs by sulforhodamine B assay
LOX IMVI [1] = assay: Cytotoxicity against human LOXIMVI cells after 48 hrs by sulforhodamine B assay
RXF 393 [2] = assay: Cytotoxicity against human RXF393 cells assessed as cell growth level at 1 uM after 48 hrs by sulforhodamine B assay
SW-620 [3] = assay: Cytotoxicity against human SW620 cells assessed as cell growth level at 10 nM after 48 hrs by sulforhodamine B assay
SK-MEL-5 [4] = assay: Cytotoxicity against human SK-MEL-5 cells assessed as cell growth level at 10 uM after 48 hrs by sulforhodamine B assay
HT-29 = assay: Cytotoxicity against human HT-29 cells assessed as cell growth level at 100 uM after 48 hrs by sulforhodamine B assay
HL-60(TB) = assay: Cytotoxicity against human HL-60(TB) cells assessed as cell growth level at 10 nM after 48 hrs by sulforhodamine B assay
RXF 393 [5] = assay: Cytotoxicity against human RXF393 cells assessed as cell growth level at 10 nM after 48 hrs by sulforhodamine B assay
A549 [6] = assay: Cytotoxicity against human A549/ATCC cells assessed as cell growth level at 10 nM after 48 hrs by sulforhodamine B assay
K562 = assay: Cytotoxicity against human K562 cells assessed as cell growth level at 100 uM after 48 hrs by sulforhodamine B assay
SF-539 = assay: Cytotoxicity against human SF539 cells assessed as cell growth level at 1 uM after 48 hrs by sulforhodamine B assay
LOX IMVI [7] = assay: Cytotoxicity against human LOXIMVI cells assessed as cell growth level at 1 uM after 48 hrs by sulforhodamine B assay
OVCAR-8 = assay: Cytotoxicity against human OVCAR8 cells assessed as cell growth level at 10 nM after 48 hrs by sulforhodamine B assay
786-0 [8] = assay: Cytotoxicity against human 786-0 cells assessed as cell growth level at 10 nM after 48 hrs by sulforhodamine B assay
OVCAR-5 = assay: Cytotoxicity against human OVCAR5 cells assessed as cell growth level at 10 uM after 48 hrs by sulforhodamine B assay
MDA-MB-468 = assay: Cytotoxicity against human MDA-MB-468 cells assessed as cell growth level at 10 nM after 48 hrs by sulforhodamine B assay
T47D [9] = assay: Cytotoxicity against human T47D cells assessed as cell growth level at 10 nM after 48 hrs by sulforhodamine B assay
T47D [10] = assay: Cytotoxicity against human T47D cells assessed as cell growth level at 1 uM after 48 hrs by sulforhodamine B assay
COLO 205 = assay: Cytotoxicity against human COLO205 cells assessed as cell growth level at 1 uM after 48 hrs by sulforhodamine B assay
HCC 2998 = assay: Cytotoxicity against human HCC2998 cells assessed as cell growth level at 100 uM after 48 hrs by sulforhodamine B assay
SW-620 [11] = assay: Cytotoxicity against human SW620 cells assessed as cell growth level at 100 nM after 48 hrs by sulforhodamine B assay
A549 [12] = assay: Cytotoxicity against human A549/ATCC cells assessed as cell growth level at 100 uM after 48 hrs by sulforhodamine B assay
SK-MEL-28 = assay: Cytotoxicity against human SK-MEL-28 cells assessed as cell growth level at 10 nM after 48 hrs by sulforhodamine B assay
SNB-75 = assay: Cytotoxicity against human SNB75 cells assessed as cell growth level at 100 nM after 48 hrs by sulforhodamine B assay
SK-MEL-5 [13] = assay: Cytotoxicity against human SK-MEL-5 cells after 48 hrs by sulforhodamine B assay; details: SK-MEL-5, 48 h
HOP-62 = assay: Cytotoxicity against human HOP62 cells assessed as cell growth level at 100 nM after 48 hrs by sulforhodamine B assay
ACHN = assay: Cytotoxicity against human ACHN cells after 48 hrs by sulforhodamine B assay
SK-MEL-2 [14] = assay: Cytotoxicity against human SK-MEL-2 cells assessed as cell growth level at 100 uM after 48 hrs by sulforhodamine B assay
MDA-MB-435 = assay: Cytotoxicity against human MDA-MB-435 cells assessed as cell growth level at 10 nM after 48 hrs by sulforhodamine B assay
786-0 [15] = assay: Cytotoxicity against human 786-0 cells after 48 hrs by sulforhodamine B assay; details: 786-0, 48 h
HOP-92 = assay: Cytotoxicity against human HOP92 cells assessed as cell growth level at 10 uM after 48 hrs by sulforhodamine B assay
SN12C = assay: Cytotoxicity against human SN12C cells assessed as cell growth level at 100 uM after 48 hrs by sulforhodamine B assay
DU-145 = assay: Cytotoxicity against human DU145 cells assessed as cell growth level at 100 nM after 48 hrs by sulforhodamine B assay
CAKI-1 = assay: Cytotoxicity against human CAKI-1 cells assessed as cell growth level at 10 nM after 48 hrs by sulforhodamine B assay
NCI-H23 = assay: Cytotoxicity against human NCI-H23 cells assessed as cell growth level at 100 uM after 48 hrs by sulforhodamine B assay
UACC-62 = assay: Cytotoxicity against human UACC62 cells assessed as cell growth level at 100 nM after 48 hrs by sulforhodamine B assay
OVCAR-3 = assay: Cytotoxicity against human OVCAR3 cells after 48 hrs by sulforhodamine B assay; details: OVCAR-3, 48 h
PC-3 = assay: Cytotoxicity against human PC3 cells assessed as cell growth level at 100 nM after 48 hrs by sulforhodamine B assay
SK-MEL-2 [16] = assay: Cytotoxicity against human SK-MEL-2 cells assessed as cell growth level at 10 nM after 48 hrs by sulforhodamine B assay
786-0 [17] = assay: Cytotoxicity against human 786-0 cells assessed as cell growth level at 100 uM after 48 hrs by sulforhodamine B assay
[18] = read-out: LC50 (the source's name)
[19] = read-out: pLC50 (the source's name) (converted)

## O=c1oc2ccccc2cc1-c1csc(N/N=C/c2c[nH]c3ccccc23)n1
SK-OV-3
  Activity: 90%
LOX IMVI [1]; read-out: GI50
  GI50: 1.93 µM
LOX IMVI [1]; [18]
  CC50: 6.71 µM
LOX IMVI [1]; read-out: TGI
  TGI: 3.6 µM
LOX IMVI [1]; read-out: pGI50 (converted)
  GI50: 1.91 µM
LOX IMVI [1]; [19]
  CC50: 6.76 µM
LOX IMVI [1]; read-out: pTGI (converted)
  TGI: 3.63 µM
RXF 393 [2]
  Activity: 53%
SW-620 [3]
  Activity: 98%
SK-MEL-5 [4]
  Activity: 69.78%
HT-29
  Activity: -81%
HL-60(TB)
  Activity: 92%
RXF 393 [5]
  Activity: 98%
A549 [6]
  Activity: 94%
K562
  Activity: -38%
SF-539
  Activity: 87%
LOX IMVI [7]
  Activity: 74%
OVCAR-8
  Activity: 104%
786-0 [8]
  Activity: 86%
OVCAR-5
  Activity: 55.24%
MDA-MB-468
  Activity: 94%
T47D [9]
  Activity: 101%
T47D [10]
  Activity: 81%
COLO 205
  Activity: 109%
HCC 2998
  Activity: -92%
SW-620 [11]
  Activity: 95%
A549 [12]
  Activity: -29%
SK-MEL-28
  Activity: 94%
SNB-75
  Activity: 90%
SK-MEL-5 [13]; read-out: GI50
  GI50: 2.09 µM
SK-MEL-5 [13]; [18]
  CC50: 15.2 µM
SK-MEL-5 [13]; read-out: TGI
  TGI: 4.97 µM
SK-MEL-5 [13]; read-out: pGI50 (converted)
  GI50: 2.09 µM
SK-MEL-5 [13]; [19]
  CC50: 15.1 µM
SK-MEL-5 [13]; read-out: pTGI (converted)
  TGI: 5.01 µM
HOP-62
  Activity: 110%
ACHN; read-out: GI50
  GI50: 1.31 µM
ACHN; [18]
  CC50: 70.8 µM
ACHN; read-out: TGI
  TGI: 4.36 µM
ACHN; read-out: pGI50 (converted)
  GI50: 1.32 µM
ACHN; [19]
  CC50: 70.8 µM
ACHN; read-out: pTGI (converted)
  TGI: 4.37 µM
SK-MEL-2 [14]
  Activity: -93%
MDA-MB-435
  Activity: 92%
786-0 [15]; read-out: GI50
  GI50: 1.35 µM
786-0 [15]; [18]
  CC50: > 100 µM
786-0 [15]; read-out: TGI
  TGI: 4.09 µM
786-0 [15]; read-out: pGI50 (converted)
  GI50: 1.35 µM
786-0 [15]; [19]
  CC50: > 100 µM
786-0 [15]; read-out: pTGI (converted)
  TGI: 4.07 µM
HOP-92
  Activity: -14.45%
SN12C
  Activity: -51%
DU-145
  Activity: 92%
CAKI-1
  Activity: 95%
NCI-H23
  Activity: -17%
UACC-62
  Activity: 96%
OVCAR-3; read-out: GI50
  GI50: 1.16 µM
OVCAR-3; [18]
  CC50: 7.31 µM
OVCAR-3; read-out: TGI
  TGI: 2.91 µM
OVCAR-3; read-out: pGI50 (converted)
  GI50: 1.15 µM
OVCAR-3; [19]
  CC50: 7.24 µM
OVCAR-3; read-out: pTGI (converted)
  TGI: 2.88 µM
PC-3
  Activity: 102%
SK-MEL-2 [16]
  Activity: 98%
786-0 [17]
  Activity: -27%
